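Values below derive from 48-hour exposures of cells grown in 96-well plates, with endpoints linearly interpolated between the two concentrations bracketing the appropriate inhibition level. GI50: concentration for 50% inhibition of growth. TGI denotes the concentration required for complete inhibition of growth.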
Columns and labels:
Test in all cases: DTP human tumour cell line panel, 48 h
[1] = tested on: 786-0 renal
[2] = tested on: A498 renal
[3] = tested on: A549 NSCLC
[4] = tested on: ACHN renal
[5] = tested on: BT-549 breast
[6] = tested on: CAKI-1 renal
[7] = tested on: CCRF-CEM leukemia
[8] = tested on: COLO 205 colon
[9] = tested on: DU-145 prostate
[10] = tested on: EKVX NSCLC
[11] = tested on: HCC-2998 colon
[12] = tested on: HCT-116 colon
[13] = tested on: HCT-15 colon
[14] = tested on: HL-60(TB) leukemia
[15] = tested on: HOP-62 NSCLC
[16] = tested on: HOP-92 NSCLC
[17] = tested on: HS 578T breast
[18] = tested on: HT29 colon
[19] = tested on: IGROV1 ovarian
[20] = tested on: K-562 leukemia
[21] = tested on: KM12 colon
[22] = tested on: LOX IMVI melanoma
[23] = tested on: M14 melanoma
[24] = tested on: MALME-3M melanoma
[25] = tested on: MCF7 breast
[26] = tested on: MDA-MB-231 breast
[27] = tested on: MDA-MB-435
[28] = tested on: MDA-MB-468 breast
[29] = tested on: MOLT-4 leukemia
[30] = tested on: NCI-H226 lung
[31] = tested on: NCI-H23 lung
[32] = tested on: NCI-H460 lung
[33] = tested on: NCI-H522 lung
[34] = tested on: NCI/ADR-RES ovarian
[35] = tested on: OVCAR-3 ovarian
[36] = tested on: OVCAR-4 ovarian
[37] = tested on: OVCAR-5 ovarian
[38] = tested on: OVCAR-8 ovarian
[39] = tested on: PC-3 prostate
[40] = tested on: RPMI-8226 leukemia
[41] = tested on: RXF 393 renal
[42] = tested on: SF-268 CNS
[43] = tested on: SF-295 CNS
[44] = tested on: SF-539 CNS
[45] = tested on: SK-MEL-2 melanoma
[46] = tested on: SK-MEL-28 melanoma
[47] = tested on: SK-MEL-5 melanoma
[48] = tested on: SK-OV-3 ovarian
[49] = tested on: SN12C renal
[50] = tested on: SNB-19 CNS
[51] = tested on: SNB-75 CNS
[52] = tested on: SR leukemia
[53] = tested on: SW-620 colon
[54] = tested on: T-47D breast
[55] = tested on: TK-10 renal
[56] = tested on: U251 CNS
[57] = tested on: UACC-257 melanoma
[58] = tested on: UACC-62 melanoma
[59] = tested on: UO-31 renal

## O=C(Nc1ccc(-c2ccc3c(c2)NC(=O)/C3=C\c2ccc[nH]2)cc1)Nc1cccc(Cl)c1
[1]
  GI50: 2.42 µM
  TGI: 7.45 µM
[2]
  GI50: 3.46 µM
  TGI: 11.1 µM
[3]
  GI50: 2.09 µM
  TGI: 7.09 µM
[4]
  GI50: 1.81 µM
  TGI: 6.57 µM
[5]
  GI50: 2.33 µM
  TGI: 6.65 µM
[6]
  GI50: 1.33 µM
  TGI: 6.39 µM
[7]
  GI50: 0.846 µM
  TGI: 4.41 µM
[8]
  GI50: 1.92 µM
  TGI: 3.79 µM
[9]
  GI50: 4.76 µM
  TGI: 92.8 µM
[10]
  GI50: 0.775 µM
  TGI: 10.7 µM
[11]
  GI50: 1.78 µM
  TGI: 5.61 µM
[12]
  GI50: 1.68 µM
  TGI: 11.7 µM
[13]
  GI50: 1.9 µM
  TGI: 10.8 µM
[14]
  GI50: 1.64 µM
  TGI: 14.5 µM
[15]
  GI50: 1.99 µM
  TGI: 6.15 µM
[16]
  GI50: 4.81 µM
  TGI: 24.4 µM
[17]
  GI50: 2.73 µM
  TGI: 8.74 µM
[18]
  GI50: 1.86 µM
  TGI: 4.54 µM
[19]
  GI50: 1.7 µM
  TGI: 3.78 µM
[20]
  GI50: 1.09 µM
  TGI: > 100 µM
[21]
  GI50: 0.0672 µM
  TGI: 2 µM
[22]
  GI50: 1.53 µM
  TGI: 3.39 µM
[23]
  GI50: 3.23 µM
  TGI: 26.1 µM
[24]
  GI50: 2.32 µM
  TGI: 7.2 µM
[25]
  GI50: 0.329 µM
  TGI: 7.58 µM
[26]
  GI50: 1.64 µM
  TGI: 3.86 µM
[27]
  GI50: 1 µM
  TGI: 14.1 µM
[28]
  GI50: 0.286 µM
  TGI: 0.838 µM
[29]
  GI50: 0.895 µM
  TGI: 11.1 µM
[30]
  GI50: 2.51 µM
  TGI: 9.27 µM
[31]
  GI50: 1.08 µM
  TGI: 3.79 µM
[32]
  GI50: 0.766 µM
  TGI: 4 µM
[33]
  GI50: 1.6 µM
  TGI: 5.1 µM
[34]
  GI50: 2.14 µM
  TGI: 6.01 µM
[35]
  GI50: 1.69 µM
  TGI: 3.85 µM
[36]
  GI50: 1.76 µM
  TGI: 9.71 µM
[37]
  GI50: 1.78 µM
  TGI: 3.76 µM
[38]
  GI50: 2.44 µM
  TGI: 6.53 µM
[39]
  GI50: 2.19 µM
  TGI: 11.2 µM
[40]
  GI50: 2.62 µM
  TGI: 15.3 µM
[41]
  GI50: 2.07 µM
  TGI: 4.52 µM
[42]
  GI50: 4.6 µM
  TGI: 60.9 µM
[43]
  GI50: 1.9 µM
  TGI: 5.02 µM
[44]
  GI50: 1.43 µM
  TGI: 3.06 µM
[45]
  GI50: 2.2 µM
  TGI: 6.05 µM
[46]
  GI50: 3.09 µM
  TGI: 10.2 µM
[47]
  GI50: 1.88 µM
  TGI: 4.5 µM
[48]
  GI50: 3.43 µM
  TGI: 14.4 µM
[49]
  GI50: 4.44 µM
  TGI: 24.3 µM
[50]
  GI50: 4.7 µM
  TGI: 35.8 µM
[51]
  GI50: 2.97 µM
  TGI: 7.93 µM
[52]
  GI50: 1.27 µM
  TGI: 32.5 µM
[53]
  GI50: 2.29 µM
  TGI: 11.7 µM
[54]
  GI50: 0.424 µM
  TGI: 5.36 µM
[55]
  GI50: 2.88 µM
  TGI: 9.85 µM
[56]
  GI50: 2.98 µM
  TGI: 11.6 µM
[57]
  GI50: 3.42 µM
  TGI: 24.5 µM
[58]
  GI50: 2.1 µM
  TGI: 6.03 µM
[59]
  GI50: 1.77 µM
  TGI: 12.7 µM

From PubChem BioAssay (NCI)
